Consider 1 compound from patent publication US6352836B1 (priority 1997, dated 2002).

The structures appear in SMILES notation. Like-named read-outs stand apart in the source and are kept apart here.

This assay deals with PHIS-PDiTPx2235 (Dirofilaria immitis, UniProt O17433). Format: biochemical, D. immitis. The conditions noted are these: for Percent protection (Mean ± SD): PHIS-PDiTPx2235 0.75 mg/ml, DTT 10 mM.
Sequence of PHIS-PDiTPx2235 (O17433 whole entry, looked up): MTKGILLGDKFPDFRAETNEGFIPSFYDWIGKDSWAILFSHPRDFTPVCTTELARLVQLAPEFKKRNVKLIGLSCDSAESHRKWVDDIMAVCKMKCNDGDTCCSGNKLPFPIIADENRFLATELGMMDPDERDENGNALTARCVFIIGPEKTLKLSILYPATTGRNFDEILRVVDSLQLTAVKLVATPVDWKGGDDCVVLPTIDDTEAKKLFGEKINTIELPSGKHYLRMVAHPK

In the case of `CCN1C(=O)C=CC1=O` [NEM, N-ethylmaleimide], the “Percent protection (Mean ± SD)” value reads like this: (NEM 0.1 mM) 97.3 ± 2.40%; (NEM 1.0 mM) 76.7 ± 1.13%; (NEM 2.0 mM) 77.9 ± 1.87%; (NEM 4.0 mM) 58.4 ± 1.57%; (NEM 8.0 mM) 21.1 ± 0.33%; (NEM 16.0 mM) 0.0 ± 0.0%. For the setting “NEM 32.0 mM”, the “Percent protection (Mean ± SD)” value amounted to 0.0 ± 0.0%. The “inhibition of H2O2 removal by PHIS-PDiTPx2235” value (inhibition concentration dependent (Table 5)) is “prevented PHIS-PDiTPx2235 from removing H2O2”.
